Test results published in patent publication US8044079B2, “Substituted oxindole derivatives, medicaments containing said derivatives and use thereof” (Abbott GmbH & Co. KG, priority 2005, dated 2011).

These compounds were tested against T1, human vasopressin V1b receptor (Homo sapiens, UniProt P47901) (assay: Vasopressin V1b receptor binding test). Settings: membranes of CHO-K1 cells with human V1b receptor, displacement of 1.5 nM 3H-AVP; for compounds with more than one stereogenic center the diastereomer with greater affinity.
T1 construct: expressed in transfected cells; host or cells: CHO-K1 (cell line hV1b_3H2_CHO), membrane preparation
T1 sequence (P47901 1-424): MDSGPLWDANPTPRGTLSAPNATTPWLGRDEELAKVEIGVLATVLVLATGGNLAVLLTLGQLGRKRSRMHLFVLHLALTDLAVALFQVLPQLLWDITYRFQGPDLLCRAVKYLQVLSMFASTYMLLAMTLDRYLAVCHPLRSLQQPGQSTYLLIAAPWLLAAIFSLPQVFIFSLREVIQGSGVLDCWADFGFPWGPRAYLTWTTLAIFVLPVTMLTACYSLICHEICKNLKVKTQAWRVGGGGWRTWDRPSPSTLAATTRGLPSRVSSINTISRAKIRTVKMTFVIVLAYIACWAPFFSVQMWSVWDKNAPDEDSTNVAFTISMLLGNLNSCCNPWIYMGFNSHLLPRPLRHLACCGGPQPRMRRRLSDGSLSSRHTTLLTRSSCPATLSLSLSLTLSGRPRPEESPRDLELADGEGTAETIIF
In short: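 Radioligand displacement on membranes carrying human V1b receptor in 50 mM tris, 10 mM MgCl2, 0.1% BSA, pH 7.4, 2% DMSO final; 60 min at room temperature, nonspecific binding with 1 μM AVP. Free ligand removed by filtration, bound counted by liquid scintillation, Ki from nonlinear regression of triplicates.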
In the case of `COc1ccc(S(=O)(=O)N2C(=O)C(N[C@@H](C)c3ncco3)(c3cc(CN4CCN(C)CC4)ccc3OC)c3cc(Cl)ccc32)cc1` (stereo partly drawn) [Example 128, 5-Chloro-1-(4-methoxybenzenesulfonyl)-3-[2-methoxy-5-(4-methylpiperazin-1-ylmethyl)phenyl]-3-((S)-1-oxazol-2-yl-ethylamino)-1,3-dihydroindol-2-one], the Ki is reported as < 10 nM. In the case of `CNCc1ccc(OC)c(C2(NCc3ncco3)C(=O)N(S(=O)(=O)c3ccc(OC)cc3)c3ccc(Cl)cc32)c1` (stereo not drawn) [Example 129, 5-Chloro-1-(4-methoxybenzenesulfonyl)-3-(2-methoxy-5-methylaminomethylphenyl)-3-[(oxazol-2-ylmethyl)amino]-1,3-dihydroindol-2-one], the Ki is reported as 10 to 100 nM. `COc1ccc(S(=O)(=O)N2C(=O)C(c3cc(CNCC(F)(F)F)ccc3OC)(N3CCC[C@H]3c3ncco3)c3cc(Cl)ccc32)cc1` (stereo partly drawn) [Example 130, 5-Chloro-1-(4-methoxybenzenesulfonyl)-3-{2-methoxy-5-[(2,2,2-trifluoroethylamino)methyl]phenyl}-3-((S)-2-oxazol-2-yl-pyrrolidin-1-yl)-1,3-dihydroindol-2-one] was tested, and the Ki was 10 to 100 nM. In the case of `CCNCc1ccc(C2(N3CCC[C@H]3c3ncco3)C(=O)N(S(=O)(=O)c3ccc(OC)cc3)c3ccc(Cl)cc32)c(OC)c1` (stereo partly drawn) [Example 131, 5-Chloro-3-(4-ethylaminomethyl-2-methoxyphenyl)-1-(4-methoxybenzenesulfonyl)-3-((S)-2-oxazol-2-yl-pyrrolidin-1-yl)-1,3-dihydroindol-2-one], the Ki is reported as 10 to 100 nM. For `CCCNCc1ccc(OC)c(C2(N3CCCC3c3nccs3)C(=O)N(S(=O)(=O)c3ccc(OC)cc3)c3ccc(Cl)cc32)c1` (stereo not drawn) [Example 132, 5-Chloro-1-(4-methoxybenzenesulfonyl)-3-(2-methoxy-5-propylaminomethylphenyl)-3-(2-thiazol-2-yl-pyrrolidin-1-yl)-1,3-dihydroindol-2-one], the Ki was 10 to 100 nM. Work on `COc1ccc(S(=O)(=O)N2C(=O)C(N[C@@H](C)c3ncco3)(c3cc(CN(C)C)ccc3OC)c3cc(Cl)ccc32)cc1` (stereo partly drawn) [Example 133, 5-Chloro-3-(5-dimethylaminomethyl-2-methoxyphenyl)-1-(4-methoxybenzenesulfonyl)-3-((S)-1-oxazol-2-yl-ethylamino)-1,3-dihydroindol-2-one] yielded a Ki of 10 to 100 nM. `CCCNCc1ccc(OC)c(C2(N[C@@H](C)c3ncco3)C(=O)N(S(=O)(=O)c3ccc(OC)cc3)c3ccc(Cl)cc32)c1` (stereo partly drawn) [Example 134, 5-Chloro-1-(4-methoxybenzenesulfonyl)-3-(2-methoxy-5-propylaminomethylphenyl)-3-((S)-1-oxazol-2-yl-ethylamino)-1,3-dihydroindol-2-one] showed a Ki of 10 to 100 nM. With `COc1ccc(S(=O)(=O)N2C(=O)C(N[C@@H](C)c3ncco3)(c3cc(CN4CCNCC4)ccc3OC)c3cc(Cl)ccc32)cc1` (stereo partly drawn) [Example 135, 5-Chloro-1-(4-methoxybenzenesulfonyl)-3-(2-methoxy-5-(piperazin-1-ylmethyl)phenyl)-3-((S)-1-oxazol-2-yl-ethylamino)-1,3-dihydroindol-2-one] the Ki was < 10 nM. `COc1ccc(S(=O)(=O)N2C(=O)C(c3ccc(CNC(C)C)cc3OC)(N3CCC[C@H]3c3ncco3)c3cc(Cl)ccc32)cc1` (stereo partly drawn) [Example 136, 5-Chloro-3-[4-(isopropylaminomethyl)-2-methoxyphenyl]-1-(4-methoxybenzenesulfonyl)-3-((S)-2-oxazol-2-yl-pyrrolidin-1-yl)-1,3-dihydroindol-2-one] gave a Ki of 10 to 100 nM. `COc1ccc(S(=O)(=O)N2C(=O)C(c3ccc(CNCCO)cc3OC)(N3CCC[C@H]3c3ncco3)c3cc(Cl)ccc32)cc1` (stereo partly drawn) [Example 137, 5-Chloro-3-{4-[(2-hydroxyethylamino)methyl]-2-methoxyphenyl}-1-(4-methoxybenzenesulfonyl)-3-((S)-2-oxazol-2-yl-pyrrolidin-1-yl)-1,3-dihydroindol-2-one] gave a Ki of 10 to 100 nM. For `COc1ccc(S(=O)(=O)N2C(=O)C(c3ccc(CN4CCNC(=O)C4)cc3OC)(N3CCC[C@H]3c3ncco3)c3cc(Cl)ccc32)cc1` (stereo partly drawn) [Example 138, 5-Chloro-1-(4-methoxybenzenesulfonyl)-3-[2-methoxy-4-(3-oxopiperazin-1-ylmethyl)phenyl]-3-((S)-2-oxazol-2-yl-pyrrolidin-1-yl)-1,3-dihydroindol-2-one], the Ki was 10 to 100 nM. `COc1ccc(S(=O)(=O)N2C(=O)C(c3cc(CNC(C)(C)C)ccc3OC)(N3CCC[C@H]3c3ncco3)c3cc(Cl)ccc32)cc1` (stereo partly drawn) [Example 139, 5-Chloro-3-[5-(tert-butylaminomethyl)-2-methoxyphenyl]-1-(4-methoxybenzenesulfonyl)-3-((S)-2-oxazol-2-yl-pyrrolidin-1-yl)-1,3-dihydroindol-2-one] gave a Ki of 10 to 100 nM. For `COc1ccc(S(=O)(=O)N2C(=O)C(N[C@@H](C)c3ncco3)(c3cc(CNCCO)ccc3OC)c3cc(Cl)ccc32)cc1` (stereo partly drawn) [Example 140, 5-Chloro-3-{5-[(2-hydroxyethylamino)methyl]-2-methoxyphenyl}-1-(4-methoxybenzenesulfonyl)-3-((S)-1-oxazol-2-yl-ethylamino)-1,3-dihydroindol-2-one], the Ki was < 10 nM. `COc1ccc(CN2CCN(C)CC2)cc1C1(N2CCC[C@H]2c2ncco2)C(=O)N(S(=O)(=O)c2ccc(OC(F)(F)F)cc2)c2ccc(Cl)cc21` (stereo partly drawn) [Example 141, 5-Chloro-3-[2-methoxy-5-(4-methylpiperazin-1-ylmethyl)phenyl]-3-((S)-2-oxazol-2-yl-pyrrolidin-1-yl)-1-(4-trifluoromethoxybenzenesulfonyl)-1,3-dihydroindol-2-one] gave a Ki of 100 to 1000 nM. In the case of `COc1ccc(S(=O)(=O)N2C(=O)C(c3cc(CN4CCN(CCO)CC4)ccc3OC)(N3CCC[C@H]3c3ncco3)c3cc(C#N)ccc32)cc1` (stereo partly drawn) [Example 142, 5-Cyano-3-{5-[4-(2-hydroxyethyl)piperazin-1-ylmethyl]-2-methoxyphenyl}-1-(4-methoxybenzenesulfonyl)-3-((S)-2-oxazol-2-yl-pyrrolidin-1-yl)-1,3-dihydroindol-2-one], the Ki is reported as < 10 nM. For `COc1ccc(S(=O)(=O)N2C(=O)C(c3cc(CN4CCNC(=O)C4)ccc3OC)(N3CCC[C@H]3c3ncco3)c3cc(C#N)ccc32)cc1` (stereo partly drawn) [Example 143, 5-Cyano-1-(4-methoxy-benzenesulfonyl)-3-[2-methoxy-5-(3-oxo-piperazin-1-ylmethyl)phenyl]-3-((S)-2-oxazol-2-yl-pyrrolidin-1-yl)-1,3-dihydroindol-2-one], the Ki was < 10 nM. In the case of `COc1ccc(S(=O)(=O)N2C(=O)C(c3cc(CN4CCCN(C)CC4)ccc3OC)(N3CCC[C@H]3c3ncco3)c3cc(C#N)ccc32)cc1` (stereo partly drawn) [Example 144, 5-Cyano-1-(4-methoxybenzenesulfonyl)-3-[2-methoxy-5-(4-methyl-[1,4]diazepan-1-ylmethyl)phenyl]-3-((S)-2-oxazol-2-yl-pyrrolidin-1-yl)-1,3-dihydroindol-2-one], the Ki is reported as < 10 nM. For `COc1ccc(CN2CCN(C)CC2)cc1C1(N2CCC[C@H]2c2ncco2)C(=O)N(S(=O)(=O)c2ccc(OC(F)F)cc2)c2ccc(Cl)cc21` (stereo partly drawn) [Example 145, 5-Chloro-1-(4-difluoromethoxybenzenesulfonyl)-3-[2-methoxy-5-(4-methylpiperazin-1-ylmethyl)phenyl]-3-((S)-2-oxazol-2-yl-pyrrolidin-1-yl)-1,3-dihydroindol-2-one], the Ki was 10 to 100 nM.
